From patent US6893829B2, “Human leukocyte 12-lipoxygenase and its role in the pathogenesis of disease states” (City of Hope, priority 1992, dated 2005)

Key:
[1] = system: leukocyte 12-LO mRNA in HSMC; test: 12-LO mRNA expression in HSMC (RT-PCR); type: cell-based, human; settings: AII 10^−7 mol/L
From the text: FIGS. 5A and 5B illustrate the regulation of leukocyte 12-LO mRNA levels by AII in HSMC using RT-PCR. FIG. 5A is the autoradiogram of the blot hybridized with 12-LO oligonucleotide probe. FIG. 5B is etidium bromide stained agarose gel. […] RNA samples were amplified for 40 cycles with leukocyte 12-LO primers or GAPDH primers.
Total RNA from cultured HSMC, HAEC and fresh MO was extracted with guanidiumthiocyanate-phenol-chloroform using RNAzol (Cinna/Biotecx Laboratories International Inc., Texas). Some RNA samples were treated by RNAse-free DNAse. 3 microgram of total RNA was mixed with the PCR buffer (10 mmol/L Tris-HCl, pH 8.3, 50 mmol/L KCl, 1.5 mmol/L MgCl2, and 0.001% gelatin), 200 μmol/L of each of the four deoxynucleotide triphosphates, 25 pmol each of 5′- and 3′-primers, 2 U Avian Myeloblastosis Virus reverse transcriptase (20 U/μl; Life Sciences, St. Petersburg, Fla.), and 2.5 U Taq polymerase (Perkin Elmer Cetus, Norwalk, Conn.) in a final vol of 50 μl. In some reactions, 5 pmol of each 5′- and 3′-primer of β2 macroglobulin or GAPDH were added as an internal standard. The samples were placed in a thermal cycler at 37° C. for eight minutes for the RT reaction to proceed. Then conditions used for PCR were a denaturation step at 94° C. for one-minute, annealing at 50° C. for two minutes, and extension at 72° C. for two minutes for 20-40 cycles. Blank reactions with no RNA template were carried out through the RT and PCR steps. […]
20 μl aliquots of the PCR products were subjected to electrophoresis in a 1.8% agarose gel in Tris acetate-EDTA buffer. […] Blots were quantitated using a computerized video densitometer.
In order to evaluate the specific expression and regulation of 12-LO mRNA in HSMC, applicants used a RT-PCR assay that exclusively amplifies the leucocyte type of 12-LO. […] When PCR conditions were used that were specific for either the platelet type 12-LO or human 15-LO no specific RNA band was detected (data not shown). […]

[2] = system: PAK; test: PAK activity in CHO-AT1a cells; type: cell-based, Chinese hamster; settings: AII 10^−7M, 30 minutes
Method: Cell lysis and PAK activity measurement were performed as described in Science, 269:221-223 (1995). Cells were lysed on ice in 50 mM Tris-HCl, 150 mM NaCl, 5 mM EGTA, 50 mM NaF, 10 mM Na pyrophosphate, 1% NP-40, 2.5% glycerol, and 1 mM Na3VO4 (pH 7.5), containing protease inhibitors PMSF, leupeptin and aprotinin. Cell were centrifuged for 10 minutes at 1000 g. For immunoprecipitation, the supernatants were incubated with anti-PAK1 or anti-PAK2 antibody (1:25) (Dept. Immuno. & Cell Biology, Scripps Res. Instit., La Jolla, Calif.) for 2 hours at 4° C. followed by incubation with 60 μl of 1:1 protein A beads for 60 minutes, then 5×1.0 ml lysis buffer washes and 2 washes with kinase buffer (50 mM HEPES, pH 7.5, 10 mM MgCl2 0.2 mM dithiothreitol, 2 μg myelin basic protein and 14 Mμ [r-^32P] ATP) for 20 minutes at 30° C. The reaction was stopped with SDS sample buffer, and results were visualized by SDS-PAGE and autoradiography.
It has been discovered that the administration of AII results in biphasic activation of MAP kinase (all of the MAP kinase experiments were conducted in CHO-AT1a cells—AII receptor AT1a cDNA transfected Chinese hamster ovary cells).

[3] = system: VEGF in vascular smooth muscle cells (VSMC); test: VEGF protein, mRNA and secretion in VSMC (Western, Northern, EIA); type: cell-based, Porcine and human
Method: In addition to the work reflected in FIGS. 8-10, it has now been discovered that AII, 12-HETE and hyperglycemia (HG) increase VEGF production in vascular smooth muscle cells (VSMC). Porcine and human VSMC were cultured for at least two passages under normal glucose (NG, 5.5 mM) or under HG conditions. VEGF protein expression was determined by Western blotting and VEGF mRNA by Northern blots. HG alone increased the level of VEGF mRNA (2.8-fold) and protein (3.2-fold). […] In addition, HG increased the secretion of VEGF into the medium as measured by a specific EIA (56.2±4 ng/ml NG vs 73±5 HG, p<0.02).

[4] = AII 10^−7M, 4 hours, cells cultured in HG

Angiotensin II (DRVYIHPF; Angiotensin-2; UniProt P01019 25-32, looked up) [AII, peptide hormone, added to cells as stimulus]
incubation time at which 12-LO mRNA induction starts [1]: 12 h | incubation time of maximum 12-LO mRNA induction [1]: 36 h | leukocyte type 12-LO mRNA expression ([1]; serum deprived HSMC): markedly upregulated | stimulation of PAK, major peak [2]: 5 fold | increase in VEGF secretion (EIA) [3]: 1.24 fold | VEGF mRNA expression increase [3, 4]: 1.4 fold | VEGF protein expression increase [3, 4]: 2.2 fold
